According to US20180000798A1, “USE OF ACLIDINIUM” (Almirall, S.A., priority 2012, published 2018):
Like-named read-outs stand apart in the source and are kept apart here.

Columns and labels:
[1] = Solubility of aclidinium bromide; type: physicochemical
Description: Aclidinium bromide is a white powder with a molecular formula of C26H30NO4S2Br and a molecular mass of 564.56.

[2] = tested on: patients with moderate to severe COPD; test: Phase III randomized, double-blind, placebo controlled crossover trial; physical activity measured with multisensor armband; type: in vivo; conditions: week 3; for Δ Comparison versus placebo, change from baseline in daily active energy expenditure / Δ Comparison versus placebo, change from baseline in duration of at least moderate activity: 400 micrograms aclidinium bromide per inhalation twice-daily, p < 0.05
Description: In a Phase III randomized, double-blind, placebo controlled, 2 period crossover trial, patients with moderate to severe COPD received a dose of aclidinium equivalent to a metered nominal dose of 400 micrograms of aclidinium bromide per inhalation twice-daily (in the morning, 9 am, and in the evening, […]) and placebo for two periods of 3 weeks, with a washout period of 2 weeks between treatment periods.
Patients were randomised to receive either a dose of aclidinium equivalent to a metered nominal dose of 400 micrograms of aclidinium bromide per inhalation twice-daily in the first period followed by placebo in the second period, or to receive placebo in the first period followed by aclidinium bromide 400 micrograms twice-daily in the second period. Both aclidinium bromide and placebo were administered with a Genuair® multidose dry powder inhaler.
Physical activity (as minutes of at least moderate activity per day and as average active energy expenditure expressed in Kcal) was measured in the last week of the treatment with aclidinium and placebo using a multisensor armband (SenseWear™ Pro Armband; BodyMedia, Pittsburgh, Pa., USA), was worn on the upper right over the triceps muscle, according to the method described in Watz B et al, Eur Respir J, 2009; 33: 262-272. The multisensory armband incorporates a biaxial accelerometer that records steps per day and physiological sensors of energy expenditure.
A valid period of measurement was defined as 5 days of measurement with the patients wearing the accelerometer at least 22 hours per day.
The Intention-to-Treat (ITT) population included 109 patients.

[3] = tested on: patients with COPD; conditions: previous trials, cited from earlier work
[4] = metered nominal dose 400 micrograms aclidinium bromide per inhalation twice-daily, adjusted mean, n = 85

Compound	Solubility in ethanol ([1]; ethanol)	Solubility in methanol ([1]; methanol)	Solubility in water ([1]; water)	Δ Comparison versus placebo, change from baseline in daily active energy expenditure [2]	Δ Comparison versus placebo, change from baseline in duration of at least moderate activity [2]	Δ Comparison versus placebo, change from baseline in daily active energy expenditure ([2]; listed as aclidinium bromide)	Δ Comparison versus placebo, change from baseline in duration of at least moderate activity ([2]; listed as aclidinium bromide)	Change from baseline in daily active energy expenditure [2, 4]	Change from baseline in duration of at least moderate activity [2, 4]	Improvement in physical activity versus placebo ([3]; listed as tiotroplum)	Improvement in physical activity versus placebo [3]
O=C(O[C@H]1C[N+]2(CCCOc3ccccc3)CCC1CC2)C(O)(c1cccs1)c1cccs1 [Aclidinium, 3(R)-(2-hydroxy-2,2-dithien-2-ylacetoxy)-1-(3-phenoxypropyl)-1-azoniabicyclo[2.2.2] octane]	very slightly soluble	sparingly soluble	very slightly soluble	55 (p < 0.05) Kcal	10 (p < 0.05) minutes	55 kcal	10 min	21.9 kcal	4.2 min	–	–
C[N+]1(C)[C@@H]2C[C@@H](OC(=O)C(O)(c3cccs3)c3cccs3)C[C@H]1[C@@H]1O[C@@H]12 [tiotropium]	–	–	–	–	–	–	–	–	–	not observed	not statistically demonstrated improvements in physical activity
